Experimental findings from ChEMBL document CHEMBL1938296, “Steroidal C-21 heteroaryl thioethers (Part 2): discovery of orally bioavailable selective glucocorticoid receptor modulators (dissociated steroids)” (Bioorg Med Chem Lett, 2012) are described below.

Activity calls are given as the source filed them. No cut-off for these calls is given here.

By IC50 is commonly meant the midpoint of a concentration-inhibition curve. The inhibition in vivo is the drop in the measured response relative to a control, in per cent. As a reminder, the AUC is the area under the concentration-time curve, a measure of exposure. Usually ED50 stands for the midpoint of the dose-response relation.

Data set [1] has as its system Rattus norvegicus. Description: Antiinflammatory activity in rat assessed as inhibition of LPS-induced TNF-alpha secretion up to 50 mg/kg, po. The format is functional, organism-based. Further details: dose 50 mg/kg.
Data set [2] deals with T1, Glucocorticoid receptor (Homo sapiens, UniProt P04150).
T1 sequence (P04150 whole entry): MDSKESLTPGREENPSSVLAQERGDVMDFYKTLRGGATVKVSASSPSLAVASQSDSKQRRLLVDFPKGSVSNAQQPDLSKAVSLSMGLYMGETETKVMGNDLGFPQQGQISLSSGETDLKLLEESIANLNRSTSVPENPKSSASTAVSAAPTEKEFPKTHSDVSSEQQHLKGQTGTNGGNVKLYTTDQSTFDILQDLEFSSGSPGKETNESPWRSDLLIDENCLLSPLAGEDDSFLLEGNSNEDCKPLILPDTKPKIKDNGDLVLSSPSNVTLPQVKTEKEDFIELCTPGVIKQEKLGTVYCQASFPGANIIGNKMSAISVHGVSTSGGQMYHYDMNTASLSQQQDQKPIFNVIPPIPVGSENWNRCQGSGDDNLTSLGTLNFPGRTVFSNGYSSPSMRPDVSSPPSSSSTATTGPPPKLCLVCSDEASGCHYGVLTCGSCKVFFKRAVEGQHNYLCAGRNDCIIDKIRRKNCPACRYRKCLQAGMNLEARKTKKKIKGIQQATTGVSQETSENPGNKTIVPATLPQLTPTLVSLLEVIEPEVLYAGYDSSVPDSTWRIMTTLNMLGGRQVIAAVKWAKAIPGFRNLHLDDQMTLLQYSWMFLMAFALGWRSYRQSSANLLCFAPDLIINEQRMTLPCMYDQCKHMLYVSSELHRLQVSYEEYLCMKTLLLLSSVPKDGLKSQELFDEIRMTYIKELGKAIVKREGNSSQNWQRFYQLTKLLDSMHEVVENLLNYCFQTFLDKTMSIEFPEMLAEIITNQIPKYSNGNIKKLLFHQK
Nature of the data set: Transactivation of glucocorticoid receptor in human HepG2 cells assessed as induction of TAT measuring degradation of tyrosine to p-hydroxy phenyl pyruvate at 1 uM relative to untreated control. The format is cell-based. The following applies: hepg2, 1 µM.

Data set [3] deals with Rattus norvegicus. Description: Toxicity in Brown Norway rat allergic lung inflammation model assessed as decrease in thymus weight at 0.3 to 30 mg/kg, po for 10 days. The format is organism-based. On the set-up: dose 0.3-30 mg/kg, route oral. The following applies: in vivo, 240 h.
In data set [4] the test system is Rattus norvegicus. Nature of the data set: Antiinflammatory activity against Brown Norway rat allergic lung inflammation model assessed as total cell inhibition at 10 mg/kg, po for 3 days. The format is functional. Further details: scale not given: the % may be the effect or the level left.
Data set [5] concerns the target T1, Glucocorticoid receptor. Description: Transrepression activity at glucocorticoid receptor in human H292 cells assessed as inhibition of TNF-stimulated IL-8 production. It is filed as cell-based.
The test system of data set [6] is Rattus norvegicus. Nature of the data set: Antiinflammatory activity in ovalbumin-induced allergic Brown Norway rat lung inflammation model assessed as inhibition of forced vital capacity at 10 mg/kg, po qd administered 3 days before ovalbumin-challenge measured 24 hrs of post ovalbumin challenge. The format is functional.
Another data set concerns the target T2, Progesterone receptor (Homo sapiens, UniProt P06401).
T2 sequence (P06401 whole entry): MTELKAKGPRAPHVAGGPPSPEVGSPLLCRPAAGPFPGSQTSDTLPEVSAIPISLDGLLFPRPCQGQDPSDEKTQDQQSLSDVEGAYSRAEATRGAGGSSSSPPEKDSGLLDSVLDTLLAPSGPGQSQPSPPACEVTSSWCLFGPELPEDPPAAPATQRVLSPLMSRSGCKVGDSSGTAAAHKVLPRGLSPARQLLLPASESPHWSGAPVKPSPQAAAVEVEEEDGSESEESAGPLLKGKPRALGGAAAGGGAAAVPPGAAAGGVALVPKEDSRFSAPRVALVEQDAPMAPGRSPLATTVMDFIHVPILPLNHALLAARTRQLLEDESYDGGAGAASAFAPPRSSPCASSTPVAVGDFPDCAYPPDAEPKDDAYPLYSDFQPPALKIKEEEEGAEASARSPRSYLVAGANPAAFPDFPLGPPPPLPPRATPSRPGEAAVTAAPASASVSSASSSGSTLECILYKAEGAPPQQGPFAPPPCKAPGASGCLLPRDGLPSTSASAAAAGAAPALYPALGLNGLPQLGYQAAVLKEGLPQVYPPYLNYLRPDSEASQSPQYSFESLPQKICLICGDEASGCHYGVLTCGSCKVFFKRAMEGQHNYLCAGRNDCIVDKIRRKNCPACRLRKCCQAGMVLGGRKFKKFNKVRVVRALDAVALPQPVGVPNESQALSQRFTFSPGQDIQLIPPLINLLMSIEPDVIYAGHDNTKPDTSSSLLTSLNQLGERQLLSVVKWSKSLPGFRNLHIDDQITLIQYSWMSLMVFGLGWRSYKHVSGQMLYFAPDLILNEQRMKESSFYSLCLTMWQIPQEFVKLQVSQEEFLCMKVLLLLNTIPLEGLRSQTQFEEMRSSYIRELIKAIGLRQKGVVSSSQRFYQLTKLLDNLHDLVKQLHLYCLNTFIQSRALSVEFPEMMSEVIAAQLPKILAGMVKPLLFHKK
Nature of the data set: Inhibition of human progesterone receptor.

In data set [7] the test system is Rattus norvegicus. Description: Antiinflammatory activity in ovalbumin-induced allergic Brown Norway rat lung inflammation model assessed as inhibition of forced vital capacity at 30 mg/kg, po qd administered 3 days before ovalbumin-challenge measured 24 hrs of post ovalbumin challenge. It is filed as functional.
Data set [8] deals with T1, Glucocorticoid receptor. Description: Inhibition of human glucocorticoid receptor.
In data set [9] the target is T3, Glucocorticoid receptor (Rattus norvegicus, UniProt P06536).
T3 sequence (P06536 whole entry): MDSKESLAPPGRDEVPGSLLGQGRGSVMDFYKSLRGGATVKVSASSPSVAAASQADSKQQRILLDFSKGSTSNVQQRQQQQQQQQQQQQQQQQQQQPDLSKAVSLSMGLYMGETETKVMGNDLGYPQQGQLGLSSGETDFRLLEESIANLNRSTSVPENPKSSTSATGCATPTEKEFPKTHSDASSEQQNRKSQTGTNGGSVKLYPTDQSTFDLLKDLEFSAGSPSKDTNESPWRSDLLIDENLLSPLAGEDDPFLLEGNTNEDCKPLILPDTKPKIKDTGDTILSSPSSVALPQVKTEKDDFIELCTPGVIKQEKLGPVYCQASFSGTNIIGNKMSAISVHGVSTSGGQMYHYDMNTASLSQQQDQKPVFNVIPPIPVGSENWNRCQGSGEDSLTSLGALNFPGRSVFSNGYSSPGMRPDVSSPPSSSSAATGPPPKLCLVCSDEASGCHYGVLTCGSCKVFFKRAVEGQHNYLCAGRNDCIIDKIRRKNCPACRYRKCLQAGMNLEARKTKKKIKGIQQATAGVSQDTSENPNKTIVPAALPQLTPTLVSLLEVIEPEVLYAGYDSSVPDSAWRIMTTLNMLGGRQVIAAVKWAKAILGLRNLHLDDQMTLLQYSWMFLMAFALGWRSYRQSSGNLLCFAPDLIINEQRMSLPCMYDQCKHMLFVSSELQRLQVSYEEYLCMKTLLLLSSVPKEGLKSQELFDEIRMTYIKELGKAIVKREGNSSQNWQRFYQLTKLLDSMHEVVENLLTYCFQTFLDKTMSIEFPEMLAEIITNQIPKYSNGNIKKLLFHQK
Nature of the data set: Transactivation of glucocorticoid receptor in rat H42E cells assessed as induction of TAT measuring degradation of tyrosine to p-hydroxy phenyl pyruvate at 1 uM relative to prednisolone. It is filed as cell-based. The following applies: read-out: Efficacy.

Data set [10] has as its system Rattus norvegicus. Nature of the data set: Antiinflammatory activity in ovalbumin-induced allergic Brown Norway rat lung inflammation model assessed as inhibition of forced vital capacity at 3 mg/kg, po qd administered 3 days before ovalbumin-challenge measured 24 hrs of post ovalbumin challenge. The format is functional.
Data set [11] has as its target T3, Glucocorticoid receptor. Description: Transactivation of glucocorticoid receptor in rat H42E cells assessed as induction of TAT measuring degradation of tyrosine to p-hydroxy phenyl pyruvate. The note with it: read-out: IC50 (the source's name). It is filed as cell-based.
Data set [12] relates to Rattus norvegicus. Nature of the data set: Toxicity in Brown Norway rat allergic lung inflammation model assessed as decrease in thymus weight at 10 mg/kg, po for 3 days. On the set-up: dose 10 mg/kg, route oral; scale not given: the % may be the effect or the level left. The format is organism-based. The note with it: in vivo, 72 h.
Data set [13] is described as follows: AUC in Brown Norway rat at 10 mg/kg, po. On the set-up: dose 10 mg/kg, route oral. The following applies: plasma. It is filed as ADME, organism-based.
Data set [14] concerns Rattus norvegicus. Nature of the data set: Antiinflammatory activity in po dosed ovalbumin-induced allergic Brown Norway rat lung inflammation model assessed as inhibition of forced vital capacity administered 3 days before ovalbumin-challenge measured 24 hrs of post ovalbumin challenge. It is filed as functional.
Data set [15] has as its system Rattus norvegicus. Nature of the data set: Antiinflammatory activity against Brown Norway rat allergic lung inflammation model assessed as total cell inhibition at 0.3 to 30 mg/kg, po for 10 days relative to prednisolone. It is filed as functional, organism-based.
Data set [16] addresses T1, Glucocorticoid receptor. Nature of the data set: Transactivation of glucocorticoid receptor in human HepG2 cells assessed as induction of TAT measuring degradation of tyrosine to p-hydroxy phenyl pyruvate. It is filed as cell-based. The following applies: read-out: IC50 (the source's name).

`Cn1c(SCC(=O)[C@@]2(O)CC[C@H]3[C@@H]4CCC5=CC(=O)C=C[C@]5(C)[C@H]4[C@@H](O)C[C@@]32C)nc2ccccc21`: the inhibition result in the data set with Rattus norvegicus [1] is “Active”. The Efficacy at Glucocorticoid receptor [2] was 11%. Besides, the Activity result is reported as “Toxic” with Rattus norvegicus [3], 58% with Rattus norvegicus [4] and 4% in the data set with Rattus norvegicus [12]. For the same compound, the results for the IC50 at Glucocorticoid receptor [5], against Progesterone receptor and against Glucocorticoid receptor [8] were 47 nM, 1370 nM and 7.3 nM, respectively. In addition, the inhibition in vivo at 10 mg/kg in the data set with Rattus norvegicus [6] came to 50%. For the same compound, in the data set on Rattus norvegicus [7], the inhibition in vivo at 30 mg/kg is 71%. For the same compound, the Emax at 1 µM on Glucocorticoid receptor [9] worked out at 4%. The inhibition in vivo at 3 mg/kg with Rattus norvegicus [10] amounted to 23%. The EC50 at Glucocorticoid receptor [11] turned out to be 235 nM. The AUC in data set [13] is 960 ng·h/mL. In addition, in the data set with Rattus norvegicus [14], the ED50 was 10 mg/kg. Besides, the result in the data set on Rattus norvegicus [15] was Active.
As to `C[C@]12C=CC(=O)C=C1CC[C@@H]1[C@@H]2[C@@H](O)C[C@@]2(C)[C@H]1CC[C@]2(O)C(=O)CSc1ccc2ccccc2n1`, on Glucocorticoid receptor [2], the Efficacy stood at 52%. Moreover, the EC50 was 262 nM at Glucocorticoid receptor [16] and 361 nM at Glucocorticoid receptor [11]. Besides, the Activity in the data set on Rattus norvegicus [4] was 21%; in the data set on Rattus norvegicus [12], 0%. For the same compound, the IC50 at Glucocorticoid receptor [5] was found to be 70.2 nM. In addition, the Emax at 1 µM at Glucocorticoid receptor [9] is 56%. For the same compound, the AUC in data set [13] was found to be 1200 ng·h/mL.
As for `C[C@]12C=CC(=O)C=C1CC[C@@H]1[C@@H]2[C@@H](O)C[C@@]2(C)[C@H]1CC[C@]2(O)C(=O)CO` [PREDNISOLONE], the Efficacy at Glucocorticoid receptor [2] came to 81%. Moreover, the Activity stood at 56% with Rattus norvegicus [4] and 53% with Rattus norvegicus [12]. Besides, the inhibition in vivo at 10 mg/kg in the data set on Rattus norvegicus [6] stood at 81%. Moreover, the inhibition in vivo at 30 mg/kg with Rattus norvegicus [7] was determined as 111%. Moreover, the Emax at 1 µM at Glucocorticoid receptor [9] turned out to be 100%. For the same compound, the inhibition in vivo at 3 mg/kg with Rattus norvegicus [10] is 43%. Also, in data set [13], the AUC stood at 1250 ng·h/mL. Moreover, the ED50 in the data set with Rattus norvegicus [14] stood at 5 mg/kg.
Turning to `C[C@@H]1C[C@H]2[C@@H]3CCC4=CC(=O)C=C[C@]4(C)[C@H]3[C@@H](O)C[C@]2(C)[C@@]1(O)C(=O)CSc1nc2cccnc2s1`, on Glucocorticoid receptor [2], the Efficacy stood at 27%. For the same compound, the EC50 at Glucocorticoid receptor [16] came to 722 nM; at Glucocorticoid receptor [11] it was 24.1 nM. The Activity in the data set with Rattus norvegicus [4] and in the data set with Rattus norvegicus [12] was 75% each time. Besides, the IC50 at Glucocorticoid receptor [5] came to 7 nM. The Emax at 1 µM at Glucocorticoid receptor [9] stood at 13%. This compound also came in with an AUC in data set [13] of 11900 ng·h/mL.
